# Patent publication US20260374754A1, “N-((ISOQUINOLIN-6-YL)METHYL)-1H-PYRAZOLE-4-CARBOXAMIDE DERIVATIVES AS PLASMA KALLIKREIN INHIBITORS FOR THE TREATMENT OF HEREDITARY ANGIODEMA” (Takeda Pharmaceutical Company Limited, priority 2022, published 2026)
# pEC50: −log10 of the molar value.
# Biological target: human activated kallikrein enzyme (Homo sapiens, UniProt P03952)
# Test: Inhibition of human activated plasma kallikrein, fluorogenic PFR-AMC substrate, 500 pM enzyme format
# Format: biochemical
# Settings: 500 pM activated kallikrein; 300 μM PFR-AMC; 30 min preincubation; 10 min room temperature; pH 7.5; read-out: Primary Dose Response Assay: Average EC50
# Summary of the method: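 Using fluorogenic PFR-AMC at 300 μM, cleavage by 500 pM human activated kallikrein ran 10 min at room temperature, read at 460 nm emission (380 nm excitation). Enzyme and compounds were first preincubated 30 min in 20 mM Tris pH 7.5, 150 mM NaCl, 1 mM EDTA, 0.1% PEG-400, 0.1% Triton X-100.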
# human activated kallikrein enzyme, sequence (P03952 391-638 limits assumed): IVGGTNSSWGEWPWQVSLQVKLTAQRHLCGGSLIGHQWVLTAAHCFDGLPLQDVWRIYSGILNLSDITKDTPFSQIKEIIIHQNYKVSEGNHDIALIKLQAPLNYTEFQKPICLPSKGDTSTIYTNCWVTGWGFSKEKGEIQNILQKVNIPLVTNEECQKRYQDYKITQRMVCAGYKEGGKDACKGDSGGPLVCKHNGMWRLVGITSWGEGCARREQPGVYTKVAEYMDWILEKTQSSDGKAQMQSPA
# human activated kallikrein enzyme, sequence (P03952 20-390 partner limits assumed): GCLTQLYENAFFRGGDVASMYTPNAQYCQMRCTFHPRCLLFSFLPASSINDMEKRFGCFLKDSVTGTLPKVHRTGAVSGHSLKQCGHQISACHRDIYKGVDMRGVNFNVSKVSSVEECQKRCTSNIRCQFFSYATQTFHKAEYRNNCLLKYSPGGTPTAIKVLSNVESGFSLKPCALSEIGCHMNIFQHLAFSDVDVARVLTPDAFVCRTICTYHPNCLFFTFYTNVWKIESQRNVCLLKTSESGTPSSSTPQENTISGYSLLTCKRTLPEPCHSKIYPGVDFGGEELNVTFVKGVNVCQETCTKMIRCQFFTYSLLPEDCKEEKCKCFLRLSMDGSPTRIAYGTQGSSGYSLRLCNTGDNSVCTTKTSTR
row,pEC50,Compound
1,> 9.00,"COc1ccc2cc(Cn3cc(C(=O)NCc4c(C)cc5c(N)nccc5c4C)cn3)c(Cl)nc2c1 [Example 108, N-((1-amino-5,7-dimethylisoquinolin-6-yl)methyl)-1-((2-chloro-7-methoxyquinolin-3-yl)methyl)-1H-pyrazole-4-carboxamide]"
2,8.00 to 9.00,"COc1ccc2nc(Cl)c(Cn3cc(C(=O)NCc4c(C)cc5c(N)nccc5c4C)cn3)cc2c1 [Example 109, N-((1-amino-5,7-dimethylisoquinolin-6-yl)methyl)-1-((2-chloro-6-methoxyquinolin-3-yl)methyl)-1H-pyrazole-4-carboxamide]"
3,8.00 to 9.00,"COc1ccc2cc(Cn3cc(C(=O)NCc4c(C)cc5c(N)nccc5c4C)cn3)cnc2c1 [Example 110, N-((1-amino-5,7-dimethylisoquinolin-6-yl)methyl)-1-((7-methoxyquinolin-3-yl)methyl)-1H-pyrazole-4-carboxamide]"
4,> 9.00,"COc1ccc2cc(Cn3cc(C(=O)NCc4c(C)cc5c(N)nccc5c4C)cn3)cnc2c1 [Example 111, N-((1-amino-5,7-dimethylisoquinolin-6-yl)methyl)-1-((7-methoxyquinolin-3-yl)methyl)-1H-pyrazole-4-carboxamide]"
5,> 9.00,"Cc1cc2c(N)nccc2c(C)c1CNC(=O)c1cnn(Cc2ccc3c(-n4cccn4)cccc3c2)c1 [Example 112, 1-((5-(1H-pyrazol-1-yl)naphthalen-2-yl)methyl)-N-((1-amino-5,7-dimethylisoquinolin-6-yl)methyl)-1H-pyrazole-4-carboxamide]"
6,8.00 to 9.00,"Cc1cc2c(N)nccc2c(C)c1CNC(=O)c1cnn(Cc2ccc3c(Br)cccc3c2)c1 [Example 113, N-((1-amino-5,7-dimethylisoquinolin-6-yl)methyl)-1-((5-bromonaphthalen-2-yl)methyl)-1H-pyrazole-4-carboxamide]"
7,> 9.00,"Cc1cc2c(N)nccc2c(C)c1CNC(=O)c1cnn(Cc2ccc3c(-c4ccccn4)cccc3c2)c1 [Example 114, N-((1-amino-5,7-dimethylisoquinolin-6-yl)methyl)-1-((5-(pyridin-2-yl)naphthalen-2-yl)methyl)-1H-pyrazole-4-carboxamide]"
8,8.00 to 9.00,"COc1c(F)cccc1Cc1ccc(Cn2cc(C(=O)NCc3c(C)cc4c(N)nccc4c3C)cn2)cc1 [Example 116, N-((1-amino-5,7-dimethylisoquinolin-6-yl)methyl)-1-(4-(3-fluoro-2-methoxybenzyl)benzyl)-1H-pyrazole-4-carboxamide]"
9,8.00 to 9.00,"Cc1cc2c(N)nccc2c(C)c1CNC(=O)c1cnn(Cc2ccc(Cc3nncn3C)cc2)c1 [Example 117, N-((1-amino-5,7-dimethylisoquinolin-6-yl)methyl)-1-(4-((4-methyl-4H-1,2,4-triazol-3-yl)methyl)benzyl)-1H-pyrazole-4-carboxamide]"
10,6.00 to 7.00,"Cc1cc2c(N)nccc2c(C)c1CNC(=O)c1cnn(Cc2ccccc2C2CC2)c1 [Example 118, N-((1-amino-5,7-dimethylisoquinolin-6-yl)methyl)-1-(2-cyclopropylbenzyl)-1H-pyrazole-4-carboxamide]"
11,> 9.00,"Cc1cc2c(N)nccc2c(C)c1CNC(=O)c1cnn(Cc2ccc(C(C)C(=O)N(C)C)cc2)c1 (stereo not shown) [Example 119, N-((1-amino-5,7-dimethylisoquinolin-6-yl)methyl)-1-(4-(1-(dimethylamino)-1-oxopropan-2-yl)benzyl)-1H-pyrazole-4-carboxamide]"
12,> 9.00,"Cc1cc2c(N)nccc2c(C)c1CNC(=O)c1cnn(C(C)c2ccc3ncc(Cl)cc3c2)c1 (stereo not shown) [Example 120, N-((1-amino-5,7-dimethylisoquinolin-6-yl)methyl)-1-(1-(3-chloroquinolin-6-yl)ethyl)-1H-pyrazole-4-carboxamide]"
13,> 9.00,"Cc1cc2c(N)nccc2c(C)c1CNC(=O)c1cnn(Cc2cc3cc(C4CC4)ccn3n2)c1 [Example 121, N-((1-amino-5,7-dimethylisoquinolin-6-yl)methyl)-1-((5-cyclopropylpyrazolo[1,5-a]pyridin-2-yl)methyl)-1H-pyrazole-4-carboxamide]"
14,> 9.00,"Cc1cc2c(N)nccc2c(C)c1CNC(=O)c1cnn(Cc2ccc(C3(C(=O)N4CCCC4)CC3)cc2)c1 [Example 122, N-((1-amino-5,7-dimethylisoquinolin-6-yl)methyl)-1-(4-(1-(pyrrolidine-1-carbonyl)cyclopropyl)benzyl)-1H-pyrazole-4-carboxamide]"
15,> 9.00,"C=Cc1cnc2ccc(Cn3cc(C(=O)NCc4c(C)cc5c(N)nccc5c4C)cn3)cc2c1 [Example 123, N-((1-amino-5,7-dimethylisoquinolin-6-yl)methyl)-1-((3-vinylquinolin-6-yl)methyl)-1H-pyrazole-4-carboxamide]"
16,> 9.00,"CCc1cnc2ccc(Cn3cc(C(=O)NCc4c(C)cc5c(N)nccc5c4C)cn3)cc2c1 [Example 124, N-((1-amino-5,7-dimethylisoquinolin-6-yl)methyl)-1-((3-ethylquinolin-6-yl)methyl)-1H-pyrazole-4-carboxamide]"

row,pEC50,Compound
1,> 9.00,"Cc1cc2c(N)nccc2c(C)c1CNC(=O)c1cnn(Cc2ccc3c(-n4ccccc4=O)cccc3c2)c1 [Example 125, N-((1-amino-5,7-dimethylisoquinolin-6-yl)methyl)-1-((5-(2-oxopyridin-1(2H)-yl)naphthalen-2-yl)methyl)-1H-pyrazole-4-carboxamide]"
2,7.00 to 8.00,"COc1ccc2nc(Cn3cc(C(=O)NCc4c(C)cc5c(N)nccc5c4C)cn3)ncc2c1 [Example 126, N-((1-amino-5,7-dimethylisoquinolin-6-yl)methyl)-1-((6-methoxyquinazolin-2-yl)methyl)-1H-pyrazole-4-carboxamide]"
3,6.00 to 7.00,"Cc1cc2c(N)nccc2c(C)c1CNC(=O)c1cnn([C@H](C)c2ccccc2)c1 [Example 127, (R)-N-((1-amino-5,7-dimethylisoquinolin-6-yl)methyl)-1-(1-phenylethyl)-1H-pyrazole-4-carboxamide]"
4,7.00 to 8.00,"Cc1ccc2nc(Cn3cc(C(=O)N(C)Cc4c(C)cc5c(N)nccc5c4C)cn3)cn2c1 [Example 128, N-((1-amino-5,7-dimethylisoquinolin-6-yl)methyl)-N-methyl-1-((6-methylimidazo[1,2-a]pyridin-2-yl)methyl)-1H-pyrazole-4-carboxamide]"
5,8.00 to 9.00,"Cc1ccc2nc(C(C(=O)O)n3cc(C(=O)NCc4c(C)cc5c(N)nccc5c4C)cn3)cn2c1 (stereo not shown) [Example 129, 2-(4-(((1-amino-5,7-dimethylisoquinolin-6-yl)methyl)carbamoyl)-1H-pyrazol-1-yl)-2-(6-methylimidazo[1,2-a]pyridin-2-yl)acetic acid]"
6,> 9.00,"Cc1ccc2nc(C(CO)n3cc(C(=O)NCc4c(C)cc5c(N)nccc5c4C)cn3)cn2c1 (stereo not shown) [Example 130, N-((1-amino-5,7-dimethylisoquinolin-6-yl)methyl)-1-(2-hydroxy-1-(6-methylimidazo[1,2-a]pyridin-2-yl)ethyl)-1H-pyrazole-4-carboxamide]"
7,6.00 to 7.00,"Cc1cc2c(N)nccc2c(C)c1CNC(=O)c1cnn(Cc2ccc(CC(=O)O)cc2)c1 [Example 131, 2-(4-((4-(((1-amino-5,7-dimethylisoquinolin-6-yl)methyl)carbamoyl)-1H-pyrazol-1-yl)methyl)phenyl)acetic acid]"
8,7.00 to 8.00,"CCOC(=O)Nc1nccc2c(C)c(CNC(=O)c3cnn(Cc4ccc5ncc(Cl)cc5c4)c3)c(C)cc12 [Example 132, ethyl (6-((1-((3-chloroquinolin-6-yl)methyl)-1H-pyrazole-4-carboxamido)methyl)-5,7-dimethylisoquinolin-1-yl)carbamate]"
9,7.00 to 8.00,"CC(=O)Nc1nccc2c(C)c(CNC(=O)c3cnn(Cc4ccc5ncc(Cl)cc5c4)c3)c(C)cc12 [Example 133, N-((1-acetamido-5,7-dimethylisoquinolin-6-yl)methyl)-1-((3-chloroquinolin-6-yl)methyl)-1H-pyrazole-4-carboxamide]"
10,> 9.00,"CNc1nccc2c(C)c(CNC(=O)c3cnn(Cc4cn5cc(C6CC6)ccc5n4)c3)c(C)cc12 [Example 134, 1-((6-cyclopropylimidazo[1,2-a]pyridin-2-yl)methyl)-N-((5,7-dimethyl-1-(methylamino)isoquinolin-6-yl)methyl)-1H-pyrazole-4-carboxamide]"
11,> 9.00,"Cc1cc2nc(Cn3cc(C(=O)NCc4c(C)cc5c(N)nccc5c4C)cn3)cn2cc1Br [Example 135, N-((1-amino-5,7-dimethylisoquinolin-6-yl)methyl)-1-((6-bromo-7-methylimidazo[1,2-a]pyridin-2-yl)methyl)-1H-pyrazole-4-carboxamide]"
12,> 9.00,"Cc1cc2c(N)nccc2c(C)c1CNC(=O)c1cnn(Cc2cn3c(C)c(C)ccc3n2)c1 [Example 136, N-((1-amino-5,7-dimethylisoquinolin-6-yl)methyl)-1-((5,6-dimethylimidazo[1,2-a]pyridin-2-yl)methyl)-1H-pyrazole-4-carboxamide]"
13,8.00 to 9.00,"Cc1cc2c(N)nccc2c(C)c1CNC(=O)c1cnn(Cc2cn3c(C4CC4)cccc3n2)c1 [Example 137, N-((1-amino-5,7-dimethylisoquinolin-6-yl)methyl)-1-((5-cyclopropylimidazo[1,2-a]pyridin-2-yl)methyl)-1H-pyrazole-4-carboxamide]"
14,> 9.00,"Cc1cc2c(N)nccc2c(C)c1CNC(=O)c1cnn(Cc2cn3c(Cl)c(Br)ccc3n2)c1 [Example 138, N-((1-amino-5,7-dimethylisoquinolin-6-yl)methyl)-1-((6-bromo-5-chloroimidazo[1,2-a]pyridin-2-yl)methyl)-1H-pyrazole-4-carboxamide]"
15,> 9.00,"Cc1cc2c(N)nccc2c(C)c1CNC(=O)c1cnn(Cc2cn3c(Br)cccc3n2)c1 [Example 139, N-((1-amino-5,7-dimethylisoquinolin-6-yl)methyl)-1-((5-bromoimidazo[1,2-a]pyridin-2-yl)methyl)-1H-pyrazole-4-carboxamide]"
